{
  "source": "patent US8754057B2",
  "about": "“Inhibition of apoptosis-specific eIF-5A(eIF-5A1″) with antisense oligonucleotides and siRNA as anti-inflammatory therapeutics” (Senesco Technologies, Inc., priority 2003, dated 2014)",
  "tested_on": "lamina cribrosa cell line #506",
  "test": "Hoescht staining apoptosis of siRNA-transfected lamina cribrosa cells treated with TNF-α and camptothecin",
  "format": "cell-based, human",
  "conditions": "LC #506, 72 h after siRNA transfection, 24 h 10 ng/ml TNF-α plus 50 μM camptothecin",
  "protocol": "Lamina cribrosa cell line #506 cells were seeded at 7500 cells per well onto an 8-well culture slide. Three days later the LC cells were transfected with either GAPDH siRNA, apoptosis-specific eIF-5A siRNAs #1-4 (SEQ ID NO:30-33), or control siRNA #5 (SEQ ID NO:34). 72 hours after transfection, the transfected cells were treated with 10 ng/ml TNF-α plus 50 μM camptothecin. Twenty-four hours later the cells were stained with Hoescht 33258 and viewed by fluorescence microscopy using a UV filter. Cells with brightly stained condensed or fragmented nuclei were counted as apoptotic. This graph represents the average of n=4 independent experiments.\nFollowing transfection, RKO and lamina cribrosa cells were incubated for 72 hours prior to collection of cellular extract for Western blot analysis. In order to determine the effectiveness of the siRNAs directed against apoptosis-specific eIF-5A to block apoptosis, lamina cribrosa cells were treated with 50 μM of camptothecin (Sigma) and 10 ng/ml of TNF-α (Leinco Technologies) to induce apoptosis either 48 or 72 hours after transfection. The cells were stained with Hoescht either 24 or 48 hours later in order to determine the percentage of cells undergoing apoptosis.\nSmall inhibitory RNAs (siRNAs) directed against human apoptosis-specific eIF-5A were used to specifically suppress expression of eIF5A in lamina cribrosa cells. Six siRNAs were generated by in vitro transcription using the Silencer™ siRNA Construction Kit (Ambion Inc.), Four siRNAs were generated against human apoptosis-specific eIF-5A (siRNAs #1 to #4). […] The siRNAs were generated according to the manufacturer's protocol. The eIF5A and control siRNA targets had the following sequences: siRNA #1 5′ […] 3′ (SEQ ID NO: 81); siRNA #2 5′ […] 3′ (SEQ ID NO: 82); siRNA #3 5′ […] 3′ (SEQ ID NO: 83); siRNA #4 5′ […] 3′ (SEQ ID NO: 84); siRNA #5′ […] 3′ (SEQ ID NO: 85). Lamina cribrosa cells were transfected with siRNA using LipofectAMINE 2000.\nLamina cribrosa cells were transfected when cell confluence was at 40 to 70% and were generally seeded onto 8-well culture slides at 7500 cells per well three days prior to transfection. Transfection medium sufficient for one well of an 8-well culture slide was prepared by diluting 25.5 proles of siRNA to a final volume of 21.2 μl in Opti-Mem (Sigma). 0.425 μl of Lipofectamine 2000 was diluted to a final volume of 21.2 μl in Opti-Mem and incubated for 7 to 10 minutes at room temperature. The diluted Lipofectamine 2000 mixture was then added to the diluted siRNA mixture and incubated together at room temperature for 20 to 30 minutes, The cells were washed once with serum-free media before adding 135 μl of serum-free media to the cells and overlaying 42.4 μl of transfection medium. […]",
  "data": [
    {"substance": "siRNA #1: siRNA against human apoptosis-specific eIF-5A (SEQ ID NO:30); target 5′ AAAGGAATGACTTCCAGCTGA 3′ (SEQ ID NO: 81) (AAAGGAAUGACUUCCAGCUGATT; RNA, all phosphodiester, T or U not given here; listed as Homo sapiens)", "values": [
      {"measurement": "reduce apoptosis of LC cells", "result": 59, "unit": "%"}
    ]}
  ]
}
